Measured values: patent publication US20080269343A1, “GALENIC FORMULATIONS OF ORGANIC COMPOUNDS” (priority 2004, published 2008)

How the values were obtained:
[1] = Single-dose four-period crossover pharmacokinetic study of 75, 150, 300 and 600 mg aliskiren (dosage form 3) in healthy volunteers (Example 3); type: in vivo; details: human, plasma; for Cmax / AUC(0-t) / AUC(0-inf): arithmetic mean (SD); for AUC(0-t): read-out: AUC0-96; for Tmax: median, dosage form 3, healthy subjects n = 30, fasted
Method: An open-label, single-dose, four-period, four-treatment, randomized crossover study with a 7-day washout between each period to compare the plasma concentrations of 75, 150, 300 and 600 mg of aliskiren (dosage form 3) in healthy volunteers was carried out. A total of 32 healthy subjects enrolled and 30 completed all study procedures and treatments. Subjects were screened during a 21-Day period and, if eligible, proceeded to a baseline visit prior to each treatment (four baseline evaluations in total). There was an end of study evaluation prior to discharge from the study site. Subjects were randomized into 4 dosing sequence groups with 8 subjects per sequence. The subjects were admitted to the study center at least 12 hours prior to the initial dosing in each period for baseline evaluations, and were confined to the clinic for at least 48 h post-dose in each period. Following an inter-dose interval of at least 7 days, each subject returned to the study site to receive the alternate treatment as per their randomization schedule. All subjects received each of the 75, 150, 300 and 600 mg treatments once during the study according to a randomization schedule. Plasma samples for determination of aliskiren were obtained over 96 hour period after the dose in each treatment segment. For all treatment periods, subjects fasted for a minimum of 10 hours pre-dose to 4 hours post-dose. Subjects were considered to have completed the study when all safety and pharmacokinetic evaluations had been completed.
Blood samples were collected to determine the pharmacokinetics following a single oral dose of 75, 150, 300 or 600 mg of aliskiren. Plasma concentrations of aliskiren were used to determine the pharmacokinetic parameters using non-compartmental methods, and the data are summarized in FIGS. 1, 2, and 3, and Table 1.

[2] = Single and multiple dose 300 mg pharmacokinetic study in Japanese and Caucasian healthy male subjects (Example 5); type: in vivo, human; details: for Cavg^SS / AUC(0-t) / Cmax / AUC: arithmetic mean (SD); for Tmax / AUC(0-t) / Cmax / AUC: male, human, plasma, oral, 300 mg; for Tmax: Median (minimum-maximum); for AUC(0-t): read-out: AUC0-72; for AUC: read-out: AUC0-τ
Method: An open label, non-randomized, single center, parallel group single and multiple dose study in healthy male subjects was carried out. Two parallel groups, one Japanese (n=19), the other Caucasian (n=19), age (±5 years) and weight matched (±25%), were enrolled in this study. Each subject participated in a 21-day screening period, a baseline period (Day −1), a 10 day treatment period (Days 1-10) and a study completion evaluation 4-7 days after the last PK sample. Each subject received a single 300 mg oral dose of aliskiren (dosage form 3) on Day 1 with 72 hour PK sampling, followed by multiple (once a day for 7 days) 300 mg oral doses of aliskiren on Days 4 through to 10. All administrations of aliskiren were given following a 10 hour fast. Subjects were domiciled in the study center from Day −1 (baseline) until the 24 hour post last-dose evaluations were completed oh Day 11.
Blood samples were collected to determine the pharmacokinetics following a single oral dose of 300 mg of aliskiren and multiple doses (once daily) of aliskiren 300 mg. Plasma concentrations of aliskiren were used to determine the pharmacokinetic parameters using non-compartmental methods, and the data are summarized in FIGS. 5 and 6, and Tables 4 and 5.

[3] = Steady-state pharmacokinetics of aliskiren 300 mg alone, furosemide interaction study, Day 13 (Example 6); type: in vivo, human; details: 300 mg daily, Day 13, healthy volunteers N 21; for AUC / Cmax / Tmax: both sexes, human, in vivo, oral, 300 mg
Method: An open-label, 2-period study in healthy subjects was carried out to evaluate the pharmacokinetic drug-drug interaction between furosemide and aliskiren when given alone or in combination. A total of 22 healthy male and female volunteers enrolled and 21 completed all study procedures and treatments. The subjects were admitted to the study center for at least 12 hours prior to the initial dosing for baseline evaluation, and confined to the clinic for entire study. Subjects were given an end-of-study evaluation on Day 17 approximately 24 h after the last treatment of aliskiren. For all treatment periods, subjects fasted for a minimum of 10 hours pre-dose to 4 hours post-dose. Subjects were considered to have completed the study when all safety and pharmacokinetic evaluations had been completed.
In Period 1 (Study Days 1-3), subjects received a single 20 mg daily dose of furosemide. In Period 2 (Study Days 7-16), subjects received 300 mg of aliskiren once a day for a total of 10 days with a single 20 mg daily dose of furosemide co-administered for three days (Study Days 14-16), starting Day 14 of the study. There was a three day wash out between Period 1 and 2 (Study Days 4-6).
Pharmacokinetic blood sampling for aliskiren alone occurred on Study Day 13 up to 24 hours post-dose (5-mL blood samples were collected into lithium heparin tubes on Day 13 of the study at pre-dose, 0.5, 1, 2, 4, 6, 8, 12, 16 and 24 hours after dosing).

[4] = single oral dose 75 mg, healthy subjects n = 30
[5] = single oral dose 150 mg, healthy subjects n = 30
[6] = single oral dose 300 mg, healthy subjects n = 30
[7] = single oral dose 600 mg, healthy subjects n = 30
[8] = steady state, 300 mg once a day, Caucasian subjects
[9] = steady state, 300 mg once a day, Japanese subjects

SMILES: COCCCOc1cc(C[C@@H](C[C@H](N)[C@@H](O)C[C@H](C(=O)NCC(C)(C)C(N)=O)C(C)C)C(C)C)ccc1OC [aliskiren, 2(S),4(S),5(S),7(S)—N-(3-amino-2,2-dimethyl-3-oxopropyl)-2,7-di(1-methylethyl)-4-hydroxy-5-amino-8-[4-methoxy-3-(3-methoxy-propoxy)phenyl]-octanamide]
- Cmax [1, 4]: 26 ng/mL
- AUC(0-t) [1, 4]: 266 ng·h/mL
- AUC(0-inf) ([1]; single oral dose 75 mg, healthy subjects, n = 23): 356 ng·h/mL
- Cmax [1, 5]: 72 ng/mL
- AUC(0-t) [1, 5]: 530 ng·h/mL
- AUC(0-inf) ([1]; single oral dose 150 mg, healthy subjects, n = 29): 627 ng·h/mL
- AUC(0-inf) [1, 6]: 1620 ng·h/mL
- Cmax [1, 6]: 202 ng/mL
- AUC(0-t) [1, 6]: 1480 ng·h/mL
- AUC(0-inf) [1, 7]: 3520 ng·h/mL
- Cmax [1, 7]: 420 ng/mL
- AUC(0-t) [1, 7]: 3240 ng·h/mL
- Tmax ([1]; single oral dose 75 mg): 1 h
- Tmax ([1]; single oral dose 150 mg): 2.5 h
- Tmax ([1]; single oral dose 300 mg): 3 h
- Tmax ([1]; single oral dose 600 mg): 2 h
- Cavg^SS [2, 8]: 89 (33) ng/mL
- Cavg^SS [2, 9]: 105 (49) ng/mL
- Tmax ([2]; single dose 300 mg, Caucasian subjects n=19, fasted, read-out: Tmax): 2 h
- Tmax ([2]; single dose 300 mg, Japanese subjects n=19, fasted, read-out: Tmax): 2 h
- Tmax ([2]; steady state, 300 mg once a day, Caucasian subjects, read-out: Tmax^SS): 2 h
- Tmax ([2]; steady state, 300 mg once a day, Japanese subjects, read-out: Tmax^SS): 4 h
- AUC(0-t) ([2]; single dose 300 mg, Caucasian subjects n=19): 1120 ng·h/mL
- Cmax ([2]; single dose 300 mg, Caucasian subjects n=19, read-out: Cmax): 186 ng/mL
- AUC(0-t) ([2]; single dose 300 mg, Japanese subjects n=19): 1390 ng·h/mL
- Cmax ([2]; single dose 300 mg, Japanese subjects n=19, read-out: Cmax): 215 ng/mL
- AUC [2, 8]: 2140 ng·h/mL
- Cmax ([2]; steady state, 300 mg once a day, Caucasian subjects, read-out: Cmax^SS): 321 ng/mL
- AUC [2, 9]: 2520 ng·h/mL
- Cmax ([2]; steady state, 300 mg once a day, Japanese subjects, read-out: Cmax^SS): 403 ng/mL
- AUCτ ([3]; Max): 3973 ng·h/mL
- Cmax^SS ([3]; Max): 652 ng/mL
- Cmin^SS ([3]; Max): 52.30 ng/mL
- tmax^SS ([3]; Max): 6.0 h
- Cmin^SS ([3]; Median): 24.40 ng/mL
- AUCτ ([3]; Min): 471 ng·h/mL
- Cmax^SS ([3]; Min): 116 ng/mL
- Cmin^SS ([3]; Min): 6.26 ng/mL
- tmax^SS ([3]; Min): 0.5 h
- Cmin^SS ([3]; arithmetic mean): 25.80 ng/mL
- AUC ([3]; Median): 1810 ng·h/mL
- Cmax ([3]; Median): 284 ng/mL
- Tmax ([3]; Median): 1 h
- AUC ([3]; arithmetic mean): 1890 ng·h/mL
- Cmax ([3]; arithmetic mean): 334 ng/mL
- Tmax ([3]; arithmetic mean): 1.5 h
